Data set [1] concerns NLRP3 inflammasome. The data set is described as follows: Metabolites on IL-1β production after LPS priming and ATP, THP-1 macrophages. In kind it is cell-based, human. Particulars: 10 or 50 μM 16 hours, 200 ng/ml LPS three hours, 5 mM ATP one hour. The procedure:
(§1) FIG. 7A-7B. Bacteria metabolites (MQ and JE) reduce IL-1β expression. Murine macrophages, (FIG. 7A) or THP-1 macrophages (FIG. 7B) were pre-treated with either 10 μM (3.5 μg/mL), 50 μM (17 μg/mL) of JE, 10 μM (4.9 μg/mL), 50 μM (24 μg/mL) of MQ or combination of both for 16 hours. Macrophages were primed with 200 ng/ml of LPS for three hours, followed by inflammasome activation with 5 mM ATP for one hour. Supernatants were collected, IL-1B was measured by ELISA. ***, P<0.001
(§2) Next, the metabolites were tested individually to assess their regulatory effects on mouse macrophages and human THP-1 macrophages. Similar to the bacterial <10 kD supernatant fraction, both JE and MQ inhibited LPS-stimulated macrophage production of TNFa and IL-6 (FIG. 5), indicating it suppresses TLR4 agonist-induced production of pro-inflammatory cytokines by macrophages.

A further data set concerns Mouse macrophages. The data set is described as follows: Metabolites on LPS-stimulated TNFα/IL-6 production, mouse macrophages. In kind it is cell-based. As to conditions: 10 or 50 μM, 16 hours pre-treatment, 200 ng/mL LPS 3 hours, ELISA. The procedure: (§3) FIG. 5A-C. Bacteria metabolites (MQ, JE, and NC) reduce expression of pro-inflammatory cytokines. Mouse macrophages cells, (FIG. 5A, FIG. 5B) Human Corneal Epithelial Cells (FIG. 5C) or THP-1 macrophages (FIG. 5D) were pre-treated with either 10 μM (3.5 μg/mL), 50 μM (17 μg/mL) of JE, 10UM (4.9 μg/mL), 50 μM (24 μg/mL) of MQ or combination of both for 16 hours, followed by 200 ng/mL of LPS to Mouse macrophages/THP1 cells, and 100 ng/ml of Flagellum to HCECs for 3 hours. The supernatants were collected and TNFα, IL-6 concentration was measured by ELISA. *, P<0.05, **. P<0.01, ***, P<0.001.
as §2
(§4) Cell Culture: Multiple macrophage cell lines were used in these experiments. Primary murine BMDMs were differentiated through isolation and treatment with L929 conditioned medium. C57BL/6 macrophages and BMDMs were seeded in complete DMEM (10% FBS+1% Penicillin-Streptomycin) in 24-well plates at concentrations of 5×10^5 and 2.5×10^5, respectively. THP-1 cells were maintained and grown in complete RPMI-1640 medium. Cells were differentiated by stimulating with PMA (100 nM) for three hours at 37° C. with 5% CO-2 until adherent. They were then collected and plated at a density of 2.5×10^5 cells per well in 24-well plates with serum-free RPMI and incubated overnight.
On the technique in general: An ELISA detects its analyte on a solid surface through an enzyme-linked reagent.

The test system of a further data set is THP-1 macrophages. The data set is described as follows: Metabolites on LPS-stimulated TNFα/IL-6 production, THP-1 macrophages. Particulars: for IL-6 expression (FIG. 6): 10 μM JE, 10 μM MQ, 50 μM NC or combinations, 16 hours, 200 ng/ml LPS three hours; for LPS-stimulated macrophage production of IL-6 / LPS-stimulated macrophage production of TNFa: 10 or 50 μM, 16 hours pre-treatment, 200 ng/mL LPS 3 hours, ELISA. It counts as cell-based, human. The procedure:
as §3
FIG. 6. Bacteria metabolites (MQ, JE, and NC) reduce IL-6 expression. THP-1 macrophages were pre-treated with either 10 μM (3.5 μg/mL) of JE, 10 μM (4.9 μg/mL) of MQ or 50UM of NC or different combinations of all three for 16 hours, followed by 200 ng/ml of LPS for three hours. Supernatants were collected and IL-6 concentration was measured by ELISA. **. P<0.01.
as §2, §4

For data set [2], the system named is CACO-2 epithelium cells / B6 Macrophages. The data set is described as follows: CACO-2 trans-well system with macrophages in lower well, metabolites JE, MQ, NC. In kind it is cell-based. As to conditions: for TNFα production by cells in lower chamber: 50 μM in upper well overnight, 200 ng/ml LPS 3 hours; for ability to cross the tight junctions of epithelial cells: 50 μM in upper well on CACO-2 cells, overnight. The procedure: FIG. 8A-8B. The assessment of the permeability of the differentiated CACO-2 epithelium cells after the treatment of JE, MQ, and NC in trans-well system. (FIG. 8A) CACO-2 cells were seeded in the upper well, and B6 Macrophages were placed into the lower well. 50UM of JE, MQ, NC, or combination of all three was added to CACO-2 cells in the upper well. Samples and controls were incubated overnight at 37° C., 5% CO2, followed by the addition of 200 ng/ml LPS to the upper and lower wells for 3 hours (Left: lower chambers, right: upper chambers). Cell culture supernatants were collected and an ELISA was used to measure TNFα or IL-6 concentrations. (FIG. 8B) FitC-dextrans (4 KDa) were added into the upper chamber simultaneously as the sample tests were added. A high concentration of hydrochloric acid (HCl) as a control was added to the upper chamber to disrupt the tight junctions. FitC-dextran collected from the bottom chamber was measured by a fluorescence spectrometer (excitation, 490 nm; emission, 520 nm). Data shown are representative mean±s.d. (***, p<0.001, **, p<0.01).
As stated before, commensal bacteria are non-invading and the metabolites must be able to cross the epithelium to mediate their functions and our earlier data confirmed <10 kD fraction pertained this ability. Therefore, we used the trans-well system to test if the identified metabolites were able to cross the epithelium. As we did previously, Caco-2 cells were culture for 2 weeks, to allow tight junctions to form. While the lower chamber contained C57BL/6 mouse BMDMs. We then measured the ability for NC, MQ and JE to cross the tight junctions without disrupting the integrity of the tight junctions. We did each separately and combined as well.

Data set [3] deals with NLRP3 inflammasome. The data set is described as follows: Metabolites on IL-1β production after LPS priming and ATP, murine macrophages. In kind it is cell-based, mouse. Particulars: 10 or 50 μM 16 hours, 200 ng/ml LPS three hours, 5 mM ATP one hour. The procedure:
as §1, §2

Turning to `CC(=O)O[C@@H]1CC[C@H]2[C@H]3CC[C@H]4CC(F)(F)CC[C@]4(C)[C@H]3CC[C@]12C` [JE, 3,3-Difluoro-5-alpha-androstan-17-beta-yl acetate], the “IL-β production stimulated by LPS and ATP” value (“IL-β production stimulated” for short) in the data set with NLRP3 inflammasome [1] and with NLRP3 inflammasome [3] was “inhibited” in each case. The “LPS-stimulated macrophage production of IL-6” value in the data set with Mouse macrophages and in the data set with THP-1 macrophages was “inhibited” in each case. Besides, the “LPS-stimulated macrophage production of TNFa” value in the data set with Mouse macrophages and with THP-1 macrophages was “inhibited” in each case. The “IL-6 expression (FIG. 6)” value in the data set with THP-1 macrophages is listed as “reduce”. For the same molecule, the “TNFα production by cells in lower chamber” value in data set [2] is listed as “suppress”.
Take `CCCCCCCCCCCCCCCC(=O)N[C@@H](C(=O)O)[C@H](C)O` [NC, N-Palmitoyl-D-Threonine]: in the data set with THP-1 macrophages, the “IL-6 expression (FIG. 6)” value was “reduce”. Further, in data set [2], the “ability to cross the tight junctions of epithelial cells” value is listed as “can pass through” and the “TNFα production by cells in lower chamber” value is recorded as “suppress”.
In the case of Prednicarbate [MQ], the “IL-β production stimulated” value in the data set on NLRP3 inflammasome [1] is recorded as “inhibited”. For the same molecule, in the data set on Mouse macrophages, the “LPS-stimulated macrophage production of IL-6” value is recorded as “inhibited” and the “LPS-stimulated macrophage production of TNFa” value is given as “inhibited”. Moreover, in the data set with THP-1 macrophages, the “IL-6 expression (FIG. 6)” value is given as “reduce”, the “LPS-stimulated macrophage production of IL-6” value is recorded as “inhibited” and the “LPS-stimulated macrophage production of TNFa” value is listed as “inhibited”. Moreover, in data set [2], the “ability to cross the tight junctions of epithelial cells” value is “can pass through” and the “TNFα production by cells in lower chamber” value is “suppress”. The “IL-β production stimulated” value with NLRP3 inflammasome [3] is “inhibited”.

(Values after US20250000874A1, “BACTERIAL METABOLITES AND THEIR USE IN REDUCING INFLAMMATION” (LOYOLA UNIVERSITY OF CHICAGO, priority 2023, published 2025).)
